Measurements reported in patent publication US8492384B2 (Korea Institute of Science and Technology, priority 2008, dated 2013).

Experiments:
Assay type in all cases: cell-based
[1] = target: T1, α1G T-type calcium channels (Homo sapiens, UniProt O43497); experiment: T-type calcium channel activity using electrophysiological whole-cell patch-clamp technique; details: HEK293 cells expressing α1G T-type calcium channels
T1 construct: host or cells: HEK293
Method: (§1) The novel compounds of the present invention presented as the formula 1 were tested for their antagonistic activities against T-type calcium channels using the methods described below. More specifically, the synthesized compounds were screened as follows: First, as a primary screening, the compounds having 40% or higher of antagonistic activities against T-type calcium channels were selected using the FDSS6000, a high throughput screening (HTS) device. Then, as a secondary screening, the IC50 (effective inhibitory concentration) values were obtained using the electrophysiological methods.
2) Methods for the Measurements of T-Type Calcium Channel Activity Using an Electrophysiological Whole-Cell Patch-Clamp Technique
HEK293 cells stably expressing T-type calcium channels were cultured in DMEM (Dulbecco's modified Eagle's medium) containing 10% (v/v) fetal bovine serum and 1% penicillin/streptomycin (v/v) in humidified 5% CO2 at 36.5° C. Cells expressing α1GT-type calcium channels were selected using G-418 (0.5 mg/mL) in the culture medium. The culture medium was replaced with a fresh one every 3-4 days, and cells were subcultured every week.
Cells were seeded onto the coverglass coated with poly-L-lysine (0.5 mg/mL) for the measurements of T-type calcium channel activity 2-7 days prior to the recordings. Whole-cell recordings of T-type calcium channel currents were performed using an EPC-9 patch clamp amplifier (HEKA, Germany). Whole-cell currents were recorded using micropipettes with resistance of 3-4 MΩ with the pipette (intracellular) solution containing (in mM): 130 KCl, 11 EGTA, 5 Mg-ATP, and 10 HEPES, pH to 7.4 and with the bath (extracellular) solution containing (in mM): 140 NaCl, 2 CaCl2, and 10 HEPES, pH to 7.4. The inward currents of T-type calcium channels were evoked by the test pulses of −30 mV for 50 ms at a holding potential of −100 mV every 10 seconds.
Each compound was dissolved in dimethylsulfoxide (DMSO) as 10 mM stock solutions and diluted in the bath solution to 10 μM (containing 0.1% DMSO). […] More specifically, each compound was perfused to the bath for about 30-60 seconds, and the inhibition of the inward peak currents by a test compound was calculated as a percent inhibition from which the IC50 values were determined.

[2] = target: T1, α1G T-type calcium channels; experiment: T-type calcium channel activity using the FDSS6000 (HTS, Fluo-3/AM, KCl-induced intracellular calcium change); details: percent inhibition at 10 μM, HEK293 cells stably expressing α1G T-type calcium channels and Kir2.1, KCl 75 mM activation; for inhibition at 10 µM: read-out: FDSS (%, 10 μM)
Method: as §1
1) Methods for the Measurements of T-Type Calcium Channel Activity Using the FDSS6000
12 to 24 hours prior to the FDSS-based HTS assay, HEK293 cells stably expressing both α1G T-type calcium channels and Kir2.1 channels (α1G cell line: KCTC 10519BP, KRIBB (Korea Research Institute of Bioscience and Biotechnology) (GENE BANK) were seeded onto the 96-well plate coated with poly-L-lysine (0.05 mg/mL) at a density of 4×10^4 cells/well using a cell distributor (Titertek, USA). On the following day, the cells attached onto the 96-well plate were washed three times with a HEPES-buffered solution (150 mM NaCl, 5 mM KCl, 1 mM MgCl2, 2 mM CaCl2, 10 mM HEPES, 10 mM glucose, and pH 7.4) using an automatic 96-well plate washer (BioTek, USA), and then labeled with a fluorescent calcium indicator dye, Fluo-3/AM (5 μM) and 0.001% Pluronic F-127 in a HEPES-buffered solution at room temperature for 1 hour and then washed again with a HEPES-buffered solution twice. 10 minutes prior to the FDSS6000 measurements, the cells was washed with a HEPES-buffered solution containing 10 mM CaCl2 once and the final volume was adjusted.
In addition to the 96-well plates with cells, the two drug plates were prepared: one containing KCl (final concentration of 75 mM) for the activation of T-type calcium channels, and the other containing testing compounds (blocking agents of T-type calcium channels). Since most cell-based HTS devices are provided with a liquid application system for drug injection but not with a liquid absorption system, the KCl solution and the blocking agents for screening were prepared at concentrations five times higher than the final concentrations in the 10 mM CaCl2 HEPES-buffered solution, and then diluted in the cell plate, and the activities were measured. The specific method of the FDSS6000 measurements is as follows: For the FDSS6000 measurements, after the 20-sec baseline recordings, cells were preincubated with drugs for 75 seconds and the change in intracellular calcium concentration induced by KCl was measured. The percent inhibition by a test compound was calculated as integrated values of 340/380 fluorescent ratio of untreated and drug-treated cells. The control drug was 10 μM of Mibefradil®.
In details, cells were selectively exposed to 340 nm and 380 nm light excited by 4 xenon lamps installed in FDSS6000 using a computer-controlled filter wheel. The emitter fluorescence light through a 515 nm long-pass filter was passed by a freezing digital CCD camera mounted on the device. Data were collected every 1.23 seconds, and an average value of 340/380 fluorescent ratio for each well was obtained using a digital fluorescent analyzer. Data acquisition and analysis were performed using a program provided by Hamamatsu Photonics.

[3] = target: T1, α1G T-type calcium channels; experiment: T-type calcium channel activity using electrophysiological whole-cell patch-clamp technique; details: percent inhibition of inward peak currents, HEK293 cells expressing α1G, head prints 100 μM

T1 sequence (O43497 whole entry): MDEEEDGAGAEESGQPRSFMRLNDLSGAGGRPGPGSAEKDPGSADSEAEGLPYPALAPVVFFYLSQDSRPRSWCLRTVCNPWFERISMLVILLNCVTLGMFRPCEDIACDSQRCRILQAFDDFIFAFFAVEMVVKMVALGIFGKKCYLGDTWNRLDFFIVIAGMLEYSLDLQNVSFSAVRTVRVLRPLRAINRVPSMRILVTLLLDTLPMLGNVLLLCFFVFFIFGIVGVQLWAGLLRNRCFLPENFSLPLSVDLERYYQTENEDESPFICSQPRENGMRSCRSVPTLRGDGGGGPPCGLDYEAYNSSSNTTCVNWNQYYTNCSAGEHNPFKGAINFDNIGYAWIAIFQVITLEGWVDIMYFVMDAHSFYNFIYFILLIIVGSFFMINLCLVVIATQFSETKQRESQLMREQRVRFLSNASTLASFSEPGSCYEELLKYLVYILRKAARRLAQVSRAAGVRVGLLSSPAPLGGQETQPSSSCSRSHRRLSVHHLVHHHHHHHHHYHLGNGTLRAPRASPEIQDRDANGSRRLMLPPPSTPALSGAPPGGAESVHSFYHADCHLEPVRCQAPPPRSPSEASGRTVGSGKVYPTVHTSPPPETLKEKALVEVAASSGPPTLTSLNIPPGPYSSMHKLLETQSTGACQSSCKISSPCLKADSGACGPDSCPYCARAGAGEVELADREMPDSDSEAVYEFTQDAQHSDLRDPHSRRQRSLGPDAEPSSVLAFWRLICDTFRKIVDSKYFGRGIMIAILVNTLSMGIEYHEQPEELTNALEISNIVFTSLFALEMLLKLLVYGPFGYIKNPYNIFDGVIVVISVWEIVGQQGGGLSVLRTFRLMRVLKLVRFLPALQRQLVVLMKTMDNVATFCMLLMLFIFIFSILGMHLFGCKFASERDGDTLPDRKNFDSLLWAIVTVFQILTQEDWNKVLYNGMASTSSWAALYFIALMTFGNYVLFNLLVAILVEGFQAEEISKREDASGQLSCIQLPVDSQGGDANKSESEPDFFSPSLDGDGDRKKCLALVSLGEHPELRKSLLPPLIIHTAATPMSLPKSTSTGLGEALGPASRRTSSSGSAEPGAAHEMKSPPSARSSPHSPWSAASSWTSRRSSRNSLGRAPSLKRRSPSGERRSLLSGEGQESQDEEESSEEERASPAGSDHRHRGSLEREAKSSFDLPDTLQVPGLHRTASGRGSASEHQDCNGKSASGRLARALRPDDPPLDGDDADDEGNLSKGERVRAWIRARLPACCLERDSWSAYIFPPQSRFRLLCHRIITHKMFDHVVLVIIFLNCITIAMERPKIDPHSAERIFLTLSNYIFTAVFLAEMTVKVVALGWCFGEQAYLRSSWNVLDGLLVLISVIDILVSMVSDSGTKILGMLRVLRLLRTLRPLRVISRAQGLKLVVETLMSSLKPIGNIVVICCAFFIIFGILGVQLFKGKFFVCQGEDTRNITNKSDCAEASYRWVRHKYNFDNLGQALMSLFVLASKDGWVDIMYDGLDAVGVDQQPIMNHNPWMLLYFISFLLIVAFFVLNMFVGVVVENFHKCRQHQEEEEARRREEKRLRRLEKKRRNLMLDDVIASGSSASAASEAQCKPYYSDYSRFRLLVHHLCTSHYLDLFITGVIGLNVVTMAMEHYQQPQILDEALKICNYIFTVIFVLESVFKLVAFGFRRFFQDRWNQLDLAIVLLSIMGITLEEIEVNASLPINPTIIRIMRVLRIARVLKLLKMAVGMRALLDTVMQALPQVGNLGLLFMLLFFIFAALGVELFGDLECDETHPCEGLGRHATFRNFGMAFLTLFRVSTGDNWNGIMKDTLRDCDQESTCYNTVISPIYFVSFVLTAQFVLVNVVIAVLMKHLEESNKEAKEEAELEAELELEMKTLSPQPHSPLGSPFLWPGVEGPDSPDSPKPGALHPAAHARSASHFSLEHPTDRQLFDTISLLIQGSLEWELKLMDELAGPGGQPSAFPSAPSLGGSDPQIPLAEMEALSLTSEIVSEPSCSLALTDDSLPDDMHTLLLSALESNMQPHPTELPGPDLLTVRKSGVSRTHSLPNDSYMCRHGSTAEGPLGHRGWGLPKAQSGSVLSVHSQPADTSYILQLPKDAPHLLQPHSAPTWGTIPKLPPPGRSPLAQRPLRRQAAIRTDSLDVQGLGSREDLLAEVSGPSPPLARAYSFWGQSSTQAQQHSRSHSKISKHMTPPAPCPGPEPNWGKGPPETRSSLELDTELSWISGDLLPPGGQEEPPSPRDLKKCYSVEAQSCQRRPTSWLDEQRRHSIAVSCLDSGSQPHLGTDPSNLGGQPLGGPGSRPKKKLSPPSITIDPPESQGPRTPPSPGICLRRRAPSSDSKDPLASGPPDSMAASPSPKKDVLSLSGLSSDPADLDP

inhibition at 10 µM [2] [%]	Compound	further results
33.5	O=C(CCn1cnc(-c2ccccc2)c1)N1CCN(Cc2ccccc2)CC1 [Compound No. 2, 1-N-(4-benzylpiperazin-1-yl)carbonylethyl-4-phenylimidazole]	
34.4	Cc1cccc(N2CCN(C(=O)CCn3ccnc3-c3ccccc3)CC2)c1C [Compound No. 15, 1-N-[4-(2,3-dimethylphenyl)piperazin-1-yl]carbonylethyl-2-phenylimidazole]	
34.3	Cc1ccc(N2CCN(C(=O)CCn3ccnc3-c3ccccc3)CC2)c(C)c1 [Compound No. 16, 1-N-[4-(2,4-dimethylphenyl)piperazin-1-yl]carbonylethyl-2-phenylimidazole]	
35.1	O=C(CCn1ccnc1-c1ccccc1)N1CCN(c2cccc(Cl)c2)CC1 [Compound No. 26, 1-N-[4-(3-chlorophenyl)piperazin-1-yl]carbonylethyl-2-phenylimidazole]	
35	Cc1nccn1CCC(=O)N1CCN(C(c2ccccc2)c2ccccc2)CC1 [Compound No. 35, 1-N-(4-diphenylmethylpiperazin-1-yl)carbonylethyl-2-methylimidazole]	
33.8	Cc1ccc(N2CCN(C(=O)CCn3cnc(C)c3)CC2)c(C)c1 [Compound No. 38, 1-N-[4-(2,4-dimethylphenyl)piperazin-1-yl]carbonylethyl-4-methylimidazole]	
42.2	O=C(CCn1cnc(-c2ccccc2)c1)N1CCN(c2ccccc2)CC1 [Compound No. 53, 1-N-(4-phenylpiperazin-1-yl)carbonylethyl-4-phenylimidazole]	IC50 [1]: 0.00046 µM
39.2	Cc1cccc(CN2CCN(CCNC(=O)CCn3cnc(-c4ccccc4)c3)CC2)c1 [Compound No. 67, 1-N-{2-[4-(3-methylbenzyl)piperazin-1-yl]ethyl}carbamoylethyl-4-phenylimidazole]	
36.7	O=C(CCn1cnc(-c2ccccc2)c1)NCCN1CCN(Cc2ccc(F)cc2)CC1 [Compound No. 70, 1-N-{2-[4-(4-fluorobenzyl)piperazin-1-yl]ethyl}carbamoylethyl-4-phenylimidazole]	
41.7	O=C(CCn1cnc(-c2ccccc2)c1)NCCN1CCN(c2ccc(F)cc2)CC1 [Compound No. 73, 1-N-{2-[4-(4-fluorophenyl)piperazin-1-yl]ethyl}carbamoylethyl-4-phenylimidazole]	
33	COc1ccc(N2CCN(CCNC(=O)CCn3cnc(-c4ccccc4)c3)CC2)cc1 [Compound No. 75, 1-N-{2-[4-(4-methoxyphenyl)piperazin-1-yl]ethyl}carbamoylethyl-4-phenylimidazole]	
33.8	COc1ccc(CN2CCN(CCNC(=O)CCn3ccnc3C)CC2)cc1 [Compound No. 98, 1-N-{2-[4-(4-methoxybenzyl)piperazin-1-yl]ethyl}carbamoylethyl-2-methylimidazole]	

Continued, compound first:

Compound	inhibition at 10 µM [2] [%]	further results
O=C(CCn1ccnc1-c1ccccc1)NCCN1CCN(C(c2ccccc2)c2ccccc2)CC1	60.8	IC50 [1]: 18 ± 0.92 µM; inhibition at 100 µM [3]: 29.1 ± 1.7%
1-N-[4-(4-chlorophenyl)(phenyl)methylpiperazin-1-yl]carbonylethyl-2-methylimidazole [Compound No. 46]		IC50 [1]: 4.97 ± 0.18 µM; FDSS (%, 10 μM) [2]: 51.94%; HEK293 (%, 100 μM) [3]: 67.6 ± 1.3%
1-N-{2-[4-(2,3-dimethylphenyl)(phenyl)methylpiperazin-1-yl]ethyl}carbamoylethyl-4-phenylimidazole [Compound No. 56]		FDSS (%, 10 μM) [2]: 35.38%
1-N-{2-[4-(4-chlorophenyl) (phenyl)methylpiperazin-1-yl]ethyl}carbamoylethyl-2-methylimidazole [Compound No. 93]		IC50 [1]: 9.55 ± 8.7 µM; FDSS (%, 10 μM) [2]: 43.04%
1-N-{2-[4-(4-chlorophenyl) (phenyl)methylpiperazin-1-yl]ethyl}carbamoylethyl-4-methylimidazole [Compound No. 94]		IC50 [1]: 6.77 ± 1.45 µM; FDSS (%, 10 μM) [2]: 55.99%
O=C(CCn1ccnc1-c1ccccc1)N1CCN(Cc2ccc(F)cc2)CC1 [Compound No. 21, 1-N-[4-(4-fluorobenzyl)piperazin-1-yl]carbonylethyl-2-phenylimidazole]	36.8	
CCN1CCN(C(=O)CCn2ccnc2-c2ccccc2)CC1 [Compound No. 23, 1-N-(4-ethylpiperazin-1-yl)carbonylethyl-2-phenylimidazole]	23.4	
COc1ccc(N2CCN(C(=O)CCn3cnc(-c4ccccc4)c3)CC2)cc1 [Compound No. 27, 1-N-[4-(4-methoxyphenyl)piperazin-1-yl]carbonylethyl-4-phenylimidazole]	37.8	
O=C(CCn1ccnc1-c1ccccc1)N1CCN(c2ccccc2)CC1 [Compound No. 54, 1-N-(4-phenylpiperazin-1-yl)carbonylethyl-2-phenylimidazole]	24.2	
Cc1ccc(N2CCN(CCNC(=O)CCn3cnc(-c4ccccc4)c3)CC2)c(C)c1 [Compound No. 61, 1-N-{2-[4-(2,4-dimethylphenyl)piperazin-1-yl]ethyl}carbamoylethyl-4-phenylimidazole]	44.9	
Cc1ccc(N2CCN(CCNC(=O)CCn3ccnc3-c3ccccc3)CC2)c(C)c1 [Compound No. 62, 1-N-{2-[4-(2,4-dimethylphenyl)piperazin-1-yl]ethyl}carbamoylethyl-2-phenylimidazole]	40.5	
Cc1cccc(CN2CCN(CCNC(=O)CCn3ccnc3-c3ccccc3)CC2)c1 [Compound No. 68, 1-N-{2-[4-(3-methylbenzyl)piperazin-1-yl]ethyl}carbamoylethyl-2-phenylimidazole]	31.1	
O=C(CCn1cnc(-c2ccccc2)c1)NCCN1CCN(c2ccccc2)CC1 [Compound No. 71, 1-N-[2-(4-phenylpiperazin-1-yl)ethyl]carbamoylethyl-4-phenylimidazole]	30.7	
O=C(CCn1cnc(-c2ccccc2)c1)NCCN1CCN(c2cccc(Cl)c2)CC1 [Compound No. 79, 1-N-{2-[4-(3-chlorophenyl)piperazin-1-yl]ethyl}carbamoylethyl-4-phenylimidazole]	36.9	
Cc1nccn1CCC(=O)NCCN1CCN(C(c2ccccc2)c2ccccc2)CC1 [Compound No. 96, 1-N-[2-(4-diphenylmethylpiperazin-1-yl)ethyl]carbamoylethyl-2-methylimidazole]	41.4	IC50 [1]: 0.39 ± 0.28 µM
